Test results reported in paper PMC13170702 (Nuclear medicine and biology, 2025).

Tests used:
Sprague-Dawley rats = test: GLP 14-day toxicological study; assay type: in vivo; conditions: non-radioactive compound given on two consecutive days
[1] = tested on: 70 other CNS binding sites; conditions: at 1 μM; cited from earlier work

SMILES | adverse effects (Sprague-Dawley rats) | binding at 70 other CNS binding sites [1]
COC(=O)[C@@H](N)CC(=O)Nc1ccc2c(c1)Cc1cc(F)ccc1-2 [RP-115] | no overt adverse effects | –
NC(CC(=O)Nc1ccc2c(c1)Cc1cc(F)ccc1-2)C(=O)O (centres unmarked) | – | no binding
